Source: patent US20240156796A1, “PHARMACEUTICAL COMPOSITION FOR TREATMENT OR PREVENTION OF STRESS-RELATED DISORDERS” (TOKYO UNIVERSITY OF SCIENCE FOUNDATION, priority 2021, published 2024)

Columns and labels:
[1] = target: T1, κ-opioid receptor (Homo sapiens, UniProt P41145); assay: Opioid receptor function test (agonist activity), Lance Ultra cAMP kit, CHO cells expressing human κ-opioid receptor; format: cell-based; conditions: maximum response not reached, response rate at maximum concentration (10 μM), relative to U-69593, read-out: κ-receptor Emax (*response rate at the maximum concentration, reference value)
T1 construct: host or cells: CHO cells
Experimental: The functional activity of the compounds provided by the present invention relative to μ-, δ- and κ-opioid receptors was investigated.
(§1) Method: Using a Lance Ultra cAMP kit (manufactured by PerkinElmer, Inc.), the investigation was conducted in accordance with the prescribed method. In the evaluations of agonist activity, CHO cells expressing each of the human opioid receptors (δ, μ and κ: accession numbers and catalog numbers listed below) and each test compound were reacted for 30 minutes in an assay buffer (1×HBSS, 1 M HEPES, pH 7.4, 250 mM IBMX (isobutylmethylxanthine), 7.5% BSA) in the presence of 10 μM forskolin. Subsequently, the cAMP detection reagent included in the kit was added, and after 1 hour, a time-resolved fluorescence measurement was performed using an EnVision plate reader (manufactured by PerkinElmer, Inc.). […] The Emax value was calculated as the ratio of the maximum response of the test compound relative to a value of 100% for the maximum response of each control drug.
SNC80: (+)-4-[(aR)-α-((2S,5R)-4-allyl-2,5-dimethyl-1-piperazinyl)-3-methoxybenzyl]-N,N-diethylbenzamide DAMGO: [D-Ala^2,N-MePhe^4,Gly-ol]enkephalin U-69593: (+)-(5α,7α,8β)-N-methyl-N-[7-(1-pyrrolidinyl)-1-oxaspiro[4.5]dec-8-yl]benzeneacetamide

[2] = target: T2, μ-opioid receptor (Homo sapiens, UniProt P35372); assay: Opioid receptor function test (antagonist activity) against 30 nM DAMGO; format: cell-based; conditions: antagonist activity vs 30 nM DAMGO
T2 construct: host or cells: CHO cells
Experimental: as §1
(§2) Evaluations of antagonist activity relative to the μ- and κ-opioid receptors were conducted using the same method as (1) above. A fixed concentration of each control drug (μ: 30 nM DAMGO, κ: 100 nM U-69593), the test compound and CHO cells expressing each of the human opioid receptors were reacted for 30 minutes in an assay buffer in the presence of 10 μM forskolin. The test compounds were evaluated in a concentration range from 10^−12 to 10^−5 M, and subsequent operations were conducted in the same manner as the agonist activity evaluations. A dose-response curve was determined for each test compound using a value of 100% for the response of each control drug in the absence of the test compound, and the concentration that inhibited 50% of the control drug response (namely, the IC50 value) was calculated.

[3] = target: T1, κ-opioid receptor; assay: Opioid receptor function test (antagonist activity) against 100 nM U-69593; format: cell-based; conditions: antagonist activity vs 100 nM U-69593
Experimental: as §1, §2

[4] = animal model, Non-Patent Documents 4 and 5; cited from earlier work
[5] = system: mouse; assay: Mouse contextual fear conditioning test (effect on extinction learning of fear memories); format: in vivo; conditions: 5, 10, 20 mg/kg p.o. two hours before second day test; second and third days; test time 6 minutes; vs solvent group (FIG. 1)
Experimental: The effect of the compound of Example 7 on extinction learning of fear memories was investigated in a mouse contextual fear conditioning test. The test was conducted in accordance with the method described in Non-Patent Document 4. Administration of the compound of Example 7 (5, 10, 20 mg/kg p.o.) or a solvent was conducted two hours prior to placing the mouse in the experimental chamber on the second day.

[6] = system: mouse; assay: Mouse contextual fear conditioning test (effect on reconsolidation of fear memories), p.o. before second day test; format: in vivo; conditions: 20 mg/kg p.o. two hours before second day test; second and third days; test time 2 minutes; vs solvent group (FIG. 2)
Experimental: <Mouse Contextual Fear Conditioning Test (Effect on Reconsolidation of Fear Memories)> Using the same contextual fear conditioning test as Example 41, the effect on the reconsolidation of fear memories was investigated. The test was conducted in accordance with the method described in Non-Patent Document 4. Administration of the compound of Example 7 (20 mg/kg p.o.) or a solvent was conducted two hours prior to placing the mouse in the experimental chamber on the second day. In this test, the test time on the second and third days was set to 2 minutes.

[7] = system: mouse; assay: Mouse contextual fear conditioning test (effect on reconsolidation of fear memories), s.c. immediately after second day test; format: in vivo; conditions: 1 mg/kg, 3 mg/kg s.c. immediately after second day test; third day; vs solvent group (FIG. 3)

T1 sequence (P41145 whole entry): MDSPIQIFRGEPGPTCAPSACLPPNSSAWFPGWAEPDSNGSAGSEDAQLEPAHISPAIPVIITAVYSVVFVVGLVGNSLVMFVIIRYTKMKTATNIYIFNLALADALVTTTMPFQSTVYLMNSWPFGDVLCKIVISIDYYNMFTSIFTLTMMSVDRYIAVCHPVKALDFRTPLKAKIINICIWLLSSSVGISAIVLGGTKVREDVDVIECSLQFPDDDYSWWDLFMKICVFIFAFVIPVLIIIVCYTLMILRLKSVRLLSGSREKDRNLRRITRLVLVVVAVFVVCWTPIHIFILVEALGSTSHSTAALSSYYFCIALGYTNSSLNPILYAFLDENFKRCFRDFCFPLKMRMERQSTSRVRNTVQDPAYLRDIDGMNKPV
T2 sequence (P35372 whole entry): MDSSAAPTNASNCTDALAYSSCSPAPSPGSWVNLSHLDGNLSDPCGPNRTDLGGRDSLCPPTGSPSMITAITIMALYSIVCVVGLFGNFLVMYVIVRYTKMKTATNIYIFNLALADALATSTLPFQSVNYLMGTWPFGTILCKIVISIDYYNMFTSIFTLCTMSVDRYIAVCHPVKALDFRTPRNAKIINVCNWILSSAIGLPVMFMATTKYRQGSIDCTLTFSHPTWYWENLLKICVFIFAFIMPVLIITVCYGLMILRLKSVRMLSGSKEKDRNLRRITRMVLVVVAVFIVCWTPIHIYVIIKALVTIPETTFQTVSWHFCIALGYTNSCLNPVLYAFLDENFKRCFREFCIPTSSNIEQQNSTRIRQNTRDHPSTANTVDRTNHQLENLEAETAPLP

O=C(c1cc(=O)cc[nH]1)N1C[C@H]2C[C@@]34CC[C@@H]1[C@@H]2[C@@]31CCN(CC2CC2)[C@@H]4Cc2ccc(O)cc21 [Example 14, 2-((1S,3aR,5aS,6R,11bR,11cS)-14-(cyclopropylmethyl)-10-hydroxy-2,3,3a,4,5,6,7,11c-octahydro-1H-6,11b-(epiminoethano)-1,5a-methanonaphtho[1,2-e]indole-3-carbonyl)pyridin-4(1H)-one]
Emax at 10 µM [1]: 5.7%

O=C(c1cccc[n+]1[O-])N1C[C@H]2C[C@@]34CC[C@@H]1[C@@H]2[C@@]31CCN(CC2CC2)[C@@H]4Cc2ccc(O)cc21 [Example 1, 2-((1S,3aR,5aS,6R,11bR,11cS)-14-(cyclopropylmethyl)-10-hydroxy-2,3,3a,4,5,6,7,11c-octahydro-1H-6,11b-(epiminoethano)-1,5a-methanonaphtho[1,2-e]indole-3-carbonyl)pyridine 1-oxide]
IC50 [2]: 4.1 nM | IC50 [3]: 3.3 nM

C=CCN1C[C@H](C)N([C@H](c2ccc(C(=O)N(CC)CC)cc2)c2cccc(OC)c2)C[C@H]1C [SNC80, (+)-4-[(aR)-α-((2S,5R)-4-allyl-2,5-dimethyl-1-piperazinyl)-3-methoxybenzyl]-N,N-diethylbenzamide]
anxiolytic effect through the extinction of anxiety or fear memories [4]: exhibited an anxiolytic effect

Cn1c(C(=O)N2C[C@H]3C[C@@]45CC[C@@H]2[C@@H]3[C@@]42CCN(CC3CC3)[C@@H]5Cc3ccc(O)cc32)cccc1=O [Example 10, 6-((1S,3aR,5aS,6R,11bR,11cS)-14-(cyclopropylmethyl)-10-hydroxy-2,3,3a,4,5,6,7,11c-octahydro-1H-6,11b-(epiminoethano)-1,5a-methanonaphtho[1,2-e]indole-3-carbonyl)-1-methylpyridin-2(1H)-one]
IC50 [2]: 5.7 nM | IC50 [3]: 3.4 nM

Cn1cc(C(=O)N2C[C@H]3C[C@@]45CC[C@@H]2[C@@H]3[C@@]42CCN(CC3CC3)[C@@H]5Cc3ccc(O)cc32)ccc1=O [Example 9, 5-((1S,3aR,5aS,6R,11bR,11cS)-14-(cyclopropylmethyl)-10-hydroxy-2,3,3a,4,5,6,7,11c-octahydro-1H-6,11b-(epiminoethano)-1,5a-methanonaphtho[1,2-e]indole-3-carbonyl)-1-methylpyridin-2(1H)-one]
IC50 [2]: 2.4 nM | IC50 [3]: 3.3 nM

CCn1cc(C(=O)N2C[C@H]3C[C@@]45CC[C@@H]2[C@@H]3[C@@]42CCN(CC3CC3)[C@@H]5Cc3ccc(O)cc32)ccc1=O [Example 28, 5-((1S,3aR,5aS,6R,11bR,11cS)-14-(cyclopropylmethyl)-10-hydroxy-2,3,3a,4,5,6,7,11c-octahydro-1H-6,11b-(epiminoethano)-1,5a-methanonaphtho[1,2-e]indole-3-carbonyl)-1-ethylpyridin-2(1H)-one]
IC50 [2]: 2.1 nM | IC50 [3]: 4 nM

O=C(c1ccc[nH]c1=O)N1C[C@H]2C[C@@]34CC[C@@H]1[C@@H]2[C@@]31CCN(CC2CC2)[C@@H]4Cc2ccc(O)cc21 [Example 3, 3-((1S,3aR,5aS,6R,11bR,11cS)-14-(cyclopropylmethyl)-10-hydroxy-2,3,3a,4,5,6,7,11c-octahydro-1H-6,11b-(epiminoethano)-1,5a-methanonaphtho[1,2-e]indole-3-carbonyl)pyridin-2(1H)-one]
IC50 [2]: 4.6 nM | IC50 [3]: 11.1 nM

O=C(c1cccc(=O)[nH]1)N1C[C@H]2C[C@@]34CC[C@@H]1[C@@H]2[C@@]31CCN(CC2CC2)[C@@H]4Cc2ccc(O)cc21 [Example 7, 6-((1S,3aR,5aS,6R,11bR,11cS)-14-(cyclopropylmethyl)-10-hydroxy-2,3,3a,4,5,6,7,11c-octahydro-1H-6,11b-(epiminoethano)-1,5a-methanonaphtho[1,2-e]indole-3-carbonyl)pyridin-2(1H)-one]
IC50 [2]: 1.3 nM | fear response (freezing behavior, % of test time) [5]: significant reduction in fear response | fear response (freezing behavior) [6]: significant reduction in fear response | fear response (freezing behavior) [7]: significant reduction in fear response | IC50 [3]: 4.6 nM
